Results from publication PMC7758399, “Phosphoglucoisomerase Is an Important Regulatory Enzyme in Partitioning Carbon out of the Calvin-Benson Cycle” (Frontiers in Plant Science, 2020).
Like-named read-outs stand apart in the source and are kept apart here.

Tests used:
Format in all cases: biochemical
plastidic AtPGI (PGI1) [1] = target: T1, plastidic AtPGI (PGI1) (Arabidopsis thaliana, UniProt Q8H103); assay: G6PDH-coupled spectrophotometric assay, non-linear least squares fit; details: F6P to G6P direction, F6P 0-0.98 mM, 50 mM bicine pH 7.8, 4.8 mM DTT, 0.6 mM NADP+, read-out: F6P G6P / Plastidic PGI
T1 construct: N-terminal His-tag, plastid targeting peptide removed, pET11a, E. coli BL21, Ni-NTA purified
T1 sequence (Q8H103 49-613): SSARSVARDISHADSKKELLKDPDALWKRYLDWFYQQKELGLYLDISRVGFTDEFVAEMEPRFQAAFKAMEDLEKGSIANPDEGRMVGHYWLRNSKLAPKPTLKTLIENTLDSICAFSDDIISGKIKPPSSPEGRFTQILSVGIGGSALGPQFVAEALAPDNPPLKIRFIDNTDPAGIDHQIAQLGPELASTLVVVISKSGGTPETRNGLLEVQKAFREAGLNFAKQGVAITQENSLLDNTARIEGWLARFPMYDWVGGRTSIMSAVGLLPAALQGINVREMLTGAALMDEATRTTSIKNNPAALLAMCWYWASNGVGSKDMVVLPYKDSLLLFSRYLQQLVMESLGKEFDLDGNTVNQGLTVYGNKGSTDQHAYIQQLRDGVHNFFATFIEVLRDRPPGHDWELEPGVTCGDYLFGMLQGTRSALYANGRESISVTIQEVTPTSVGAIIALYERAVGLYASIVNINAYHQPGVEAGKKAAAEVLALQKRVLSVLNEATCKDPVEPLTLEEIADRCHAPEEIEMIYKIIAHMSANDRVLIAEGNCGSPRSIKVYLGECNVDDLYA
Excerpt: G6PDH-coupled spectrophotometric assay, non-linear least squares fit on plastidic AtPGI (PGI1)

cytosolic AtPGI (PGI2) [2] = target: T2, cytosolic AtPGI (PGI2) (Arabidopsis thaliana, UniProt P34795); assay: as above; details: F6P to G6P direction, F6P 0-0.98 mM, 50 mM bicine pH 7.8, 4.8 mM DTT, 0.6 mM NADP+, read-out: F6P G6P / Cytosolic PGI
T2 construct: gene PGIC; N-terminal His-tag, pET11a, E. coli BL21, Ni-NTA purified
T2 sequence (P34795 1-560): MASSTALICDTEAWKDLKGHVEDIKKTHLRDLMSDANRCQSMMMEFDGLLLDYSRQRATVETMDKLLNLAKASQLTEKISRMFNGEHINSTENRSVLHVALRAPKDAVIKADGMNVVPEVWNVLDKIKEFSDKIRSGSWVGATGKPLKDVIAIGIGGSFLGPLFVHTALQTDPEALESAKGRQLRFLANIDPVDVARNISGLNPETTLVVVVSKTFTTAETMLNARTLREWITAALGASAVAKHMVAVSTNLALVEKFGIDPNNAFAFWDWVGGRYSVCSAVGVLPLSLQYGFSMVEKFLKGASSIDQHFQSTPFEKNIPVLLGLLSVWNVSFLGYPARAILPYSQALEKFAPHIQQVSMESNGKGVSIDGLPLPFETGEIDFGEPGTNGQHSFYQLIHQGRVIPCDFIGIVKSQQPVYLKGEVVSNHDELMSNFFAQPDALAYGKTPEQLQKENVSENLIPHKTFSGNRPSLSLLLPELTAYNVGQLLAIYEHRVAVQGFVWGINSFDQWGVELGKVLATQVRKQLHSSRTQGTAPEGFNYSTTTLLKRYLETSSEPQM
Excerpt: G6PDH-coupled spectrophotometric assay, non-linear least squares fit on cytosolic AtPGI (PGI2)

plastidic SoPGI = target: T3, plastidic SoPGI (Spinacia oleracea, UniProt O82058); assay: PGI assay on lysed isolated chloroplasts; details: F6P to G6P direction; light-treated leaves (dark-treated also measured)
T3 construct: gene GPIP; native, lysed Percoll-isolated chloroplasts from market spinach leaves, light or dark treated
T3 sequence (O82058 51-618): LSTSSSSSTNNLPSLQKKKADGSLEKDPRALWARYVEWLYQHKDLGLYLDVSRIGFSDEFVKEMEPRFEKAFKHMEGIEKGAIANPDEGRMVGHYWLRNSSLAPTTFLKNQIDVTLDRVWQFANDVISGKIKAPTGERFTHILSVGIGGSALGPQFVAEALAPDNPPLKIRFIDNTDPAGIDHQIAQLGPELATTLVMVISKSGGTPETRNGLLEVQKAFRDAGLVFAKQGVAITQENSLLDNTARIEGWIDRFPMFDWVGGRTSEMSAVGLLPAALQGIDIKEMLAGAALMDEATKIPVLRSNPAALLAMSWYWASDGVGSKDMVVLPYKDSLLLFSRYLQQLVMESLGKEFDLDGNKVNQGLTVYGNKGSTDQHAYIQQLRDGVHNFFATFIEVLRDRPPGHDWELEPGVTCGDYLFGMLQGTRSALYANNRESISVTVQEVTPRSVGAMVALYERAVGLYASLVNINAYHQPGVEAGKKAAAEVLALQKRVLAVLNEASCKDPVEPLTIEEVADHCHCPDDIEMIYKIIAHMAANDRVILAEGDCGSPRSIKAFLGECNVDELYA

plastidic AtPGI (PGI1) [3] = target: T1, plastidic AtPGI (PGI1); assay: G6PDH-coupled spectrophotometric assay, Hill function fit; details: F6P to G6P direction; 50 mM bicine pH 7.8, 4.8 mM DTT, 0.6 mM NADP+; read-out: F6P G6P / Plastidic PGI
Excerpt: G6PDH-coupled spectrophotometric assay, Hill function fit on plastidic AtPGI (PGI1)

cytosolic AtPGI (PGI2) [4] = target: T2, cytosolic AtPGI (PGI2); assay: as above; details: F6P to G6P direction; 50 mM bicine pH 7.8, 4.8 mM DTT, 0.6 mM NADP+; table and text disagree, table columns possibly interchanged; read-out: F6P G6P / Cytosolic PGI
Excerpt: G6PDH-coupled spectrophotometric assay, Hill function fit on cytosolic AtPGI (PGI2)

plastidic AtPGI (PGI1) [5] = target: T1, plastidic AtPGI (PGI1); assay: phosphofructokinase-coupled LC-MS/MS assay of FBP, Hill function fit; details: G6P to F6P direction; 50 mM Tris pH 7.8, 2.5 mM MgCl2, 1 mM ATP, 5 mM DTT; table and text ratio disagree, table columns possibly interchanged; read-out: G6P F6P / Plastidic PGI
Excerpt: phosphofructokinase-coupled LC-MS/MS assay of FBP, Hill function fit on plastidic AtPGI (PGI1)

cytosolic AtPGI (PGI2) [6] = target: T2, cytosolic AtPGI (PGI2); assay: as above; details: G6P to F6P direction; 50 mM Tris pH 7.8, 2.5 mM MgCl2, 1 mM ATP, 5 mM DTT; read-out: G6P F6P / Cytosolic PGI
Excerpt: phosphofructokinase-coupled LC-MS/MS assay of FBP, Hill function fit on cytosolic AtPGI (PGI2)

[7] = competitive with F6P except above 1.0 mM

## O=C(O)[C@H](O)[C@@H](O)[C@H](O)[C@H](O)COP(=O)(O)O [6PG, 6-phosphogluconate]
Plastidic AtPGI (PGI1) [1]; [7]
  Ki: 31 µM
Cytosolic AtPGI (PGI2) [2]; [7]
  Ki: 106 µM

## O=C[C@H](O)[C@H](O)COP(=O)(O)O [E4P, erythrose 4-phosphate]
Plastidic AtPGI (PGI1) [1]
  Ki: 2.3 µM
Cytosolic AtPGI (PGI2) [2]
  Ki: 1.5 µM

## O=P(O)(O)OC[C@H]1OC(O)(CO)[C@@H](O)[C@@H]1O (stereo partly drawn) [F6P, fructose 6-phosphate]
Plastidic SoPGI
  Km: The Km of SoPGI for F6P did not change in the light or dark
Plastidic AtPGI (PGI1) [3]
  Km: 73 ± 80 µM
Cytosolic AtPGI (PGI2) [4]
  Km: 203 ± 12 µM

## O=P(O)(O)OC[C@H]1OC(O)[C@H](O)[C@@H](O)[C@@H]1O (stereo partly drawn) [G6P, glucose 6-phosphate]
Plastidic AtPGI (PGI1) [5]
  Km: 164 ± 43 µM
Cytosolic AtPGI (PGI2) [6]
  Km: 158 ± 85 µM
